Measurements as given in US5977156A (priority 1996, dated 1999).
In brackets after ≈: the same amount, converted by molar mass. Like-named read-outs stand apart in the source and are kept apart here.

Assays:
[1] = tested on: Rhizoctonia solani (sheath blight); assay: Rice seed treatment field trial, attack type 1 (sheath blight); assay type: in vivo, also called Pellicularia sasakii; settings: vs insecticide-treated control plots, after 2 months
[2] = tested on: Helminthosporium oryzae (brown spot); assay: Rice seed treatment field trial, attack type 2 (brown spot); assay type: in vivo, also called Cochliobolus miyabeanus; settings: vs insecticide-treated control plots, after 2 months
[3] = tested on: Pyricularia oryzae (leaf blast); assay type: in vivo, also called Magnaporthe grisae; settings: vs insecticide-treated control plots, after 2 months
[4] = tested on: Pyricularia oryzae (neck blast); assay type: in vivo; settings: vs insecticide-treated control plots, after 2 months
[5] = tested on: Rhynchosporium oryzae (leaf scald); assay: Rice seed treatment field trial, attack type 5 (leaf scald = leaf tip blight); assay type: in vivo; settings: vs insecticide-treated control plots, after 2 months
[6] = tested on: Sheath rot (Acrocylindrium oryzae and/or Gaeumannomyces graminis and/or Helminthosporium oryzae); assay: Rice seed treatment field trial, attack type 6 (sheath rot); assay type: in vivo; settings: vs insecticide-treated control plots, after 2 months
[7] = tested on: Grain discoloration (Pseudomonas spp., Erwinia herbicola, Helminthosporium oryzae and/or Alternaria spp.); assay: Rice seed treatment field trial, attack type 7 (grain discoloration); assay type: in vivo; settings: vs insecticide-treated control plots
[8] = tested on: Sphacelotheca reiliana; assay: Maize seed treatment against head smut; assay type: in vivo; settings: maize (Adonis), 250 g/100 kg seeds, 3 months after sowing
Experimental: This example illustrates application against head smut (Sphacelotheca reiliana).
Maize seeds (variety Adonis) were treated in the proportion of 250 g of active material per 100 kg of seeds.
These seeds are sown in 9×9 cm pots filled with a mixture of compost and coarse sand which has been pre-infected by incorporation of Sphacelotheca reiliana spores according to 2 infectious doses: […] of substrate. Each pot contains 5 maize seeds.
These pots are then placed under glass on sand kept moist by regular sprinkling, at a temperature of 20° C. and a relative humidity of 60%.
Three months after sowing, the seedlings carrying the disease (presence or absence of smut in the maize inflorescences) are counted and the results shown in the table below (expressed as percentage) are obtained. The control seedlings correspond to pots filled with a substrate infected with the disease in which untreated maize seeds have been sown.

[9] = tested on: Fusarium moniliforme; assay: Maize seed treatment against root rot; assay type: in vivo; settings: maize (Pinnacle), control 92
Experimental: This example illustrates application against root rot (Fusarium moniliforme).
Maize seeds (variety Pinnacle) were treated in the proportion of 125 and 250 g of active material per 100 kg of seeds.
These seeds are sown in 7×7 cm pots filled with vermiculite in the proportion of 5 seeds per pot. Infection is carried out by introducing, into the vicinity of the seeds, in the upper part of the substrate, 10 ml of an aqueous suspension containing 400000 spores of Fusarium moniliforme per ml.
These pots are then maintained at 80% humidity for 3 weeks at 8° C. and then for 2 weeks at 16° C.
The seedlings carrying the disease (unemerged seedlings and seedlings with slowed and deformed growth) are then counted and the results shown in the table below (expressed as percentage) were obtained. The control seedlings correspond to pots in which untreated maize seeds have been sown, which seeds have been infected with the disease.

[10] = tested on: Microdochium nivale; assay: Wheat seed treatment against snow mould; assay type: in vivo; settings: wheat (Ixos), naturally infected, control 96
Experimental: This example illustrates application against snow mould (Microdochium nivale).
Wheat seeds (variety Ixos), naturally infected with Microdochium nivale, were treated in the proportion of 5, 10, 25, 50 and 100 g of active material per 100 kg of seeds.
(§1) These seeds are sown in 7×7 cm pots filled with a peat/pozzolana mixture in the proportion of 25 seeds per pot.
These pots are maintained at 5° C. and in darkness for 3 weeks and are then placed at 10° C. under artificial light for 1 week. They are finally placed under glass, on sand kept moist by regular sprinkling, at 20° C. and 60% relative humidity for 1 week.
The seedlings carrying the disease (unemerged seedlings and deformed seedlings) are then counted and the results shown in the table below (expressed as percentage) are obtained. The control seedlings correspond to pots in which wheat seeds, naturally infected with the disease, have been sown, which seeds have not been treated.

[11] = tested on: Puccinia recondita forma speciae tritici; assay: Wheat seed treatment against brown rust; assay type: in vivo; settings: wheat (Theseus), infected foliar area, control 61
Experimental: EXAMPLE 8 This example illustrates application against brown rust of wheat (Puccinia recondita forma speciae tritici).
Wheat seeds (variety Theseus) were treated in the proportion of 10, 25, 50 and 100 g of active material per 100 kg of seeds.
These seeds are sown in 7×7 cm pots filled with a peat/pozzolana mixture in the proportion of 40 to 50 seeds per pot.
These pots are maintained at 10° C. under artificial light for 3 weeks, so that they arrive at the growth stage known as the 1-2-leaf stage.
Infection is then carried out by spraying an aqueous suspension containing 100000 spores of Puccinia recondita per ml.
The pots are then placed at 20° C. and 100% relative humidity for 24 hours and then under glass, on sand kept moist by regular sprinkling, at 20° C. and 80% relative humidity for 10 days.
The infected foliar area of the 1st leaf is then quantified visually.
The results shown in the table below (expressed as percentage) are obtained. The control seedlings correspond to pots in which untreated wheat seeds have been sown, which seeds have been infected by the disease.

[12] = tested on: Pyrenophora graminea; assay: Barley seed treatment against leaf stripe; assay type: in vivo; settings: barley (Agneta), naturally infected, 100 g/100 kg seeds
Experimental: This example illustrates application against leaf stripe (Pyrenophora graminea).
Barley seeds (variety Agneta), naturally infected with Pyrenophora graminea, were treated in the proportion of 100 g of active material per 100 kg of seeds.
as §1
These pots are maintained at 5° C. and in darkness for 3 weeks and are then placed at 10° C. under artificial light for 1 week. They are finally placed under glass, on sand kept moist by regular sprinkling, at 20° C. and 60% relative humidity for 3 weeks.
The seedlings carrying the disease (seedlings carrying off-white streaks along the leaves) are then counted and the following results (expressed as percentage) are obtained. The control seedlings correspond to pots in which barley seeds, naturally infected with the disease, have been sown, which seeds have not been treated. Two successive tests were carried out.

[13] = tested on: Rhizoctonia solani; assay: Cotton seed treatment against damping off; assay type: in vivo; settings: cotton (DP 50), 17 days; for Total damping off (in %): pre-+post-emergence, control 80; for Pre-emergence damping off (in %): control 70
Experimental: This example illustrates application against damping off (Rhizoctonia solani).
Cotton seeds (variety DP 50) were treated in the proportion of 125, 250 and 500 g of active material per 100 kg of seeds.
These seeds are sown in 7×7 cm pots filled with a peat/pozzolana mixture which has been pre-infected by incorporation of 1 part of an aqueous suspension containing milled Rhizoctonia solani mycelium in 1600 parts of substrate. Each pot contains 5 cotton seeds.
These pots are then placed under glass at a temperature of 25° C. and at a relative humidity of 80% for 17 days.
The results with respect to early damping off (pre-emergence) and with respect to all the damping off attacks (pre-+post-emergence) are shown in the table below (expressed as percentage). The control seedlings correspond to pots filled with a substrate infected with the disease in which untreated cotton seeds have been sown.

[14] = tested on: Coniophora puteana; assay: Inhibition of growth of wood-degrading fungus on agar; assay type: cell-based; settings: agar culture medium, 20° C., read-out: IC50 (50% inhibition of the growth of the fungus)
Experimental: (§2) This example illustrates application against fungi which degrade wood.
(§3) Agar culture medium containing different doses of the active material to be tested is introduced into petri dishes.
(§4) Petri dishes with the same culture medium without the active material are prepared in order to act as control.
(§5) One day after the preparation of these petri dishes, agar implants supporting a fungal culture are deposited at the center of each petri dish. The fungi tested are: Serpula lacrymans, Coniophora puteana (dry and wet rots) and Gleophyllum trabeum.
(§6) The petri dishes are then placed at 20° C. until the results are recorded. The results are read when the untreated control culture has colonized virtually all the dish. The diameter of the fungal cultures is then measured and the concentration of active material causing 50% inhibition of the growth of the fungus (called the IC50) is calculated.

[15] = tested on: Gloeophyllum trabeum; assay: as above; assay type: cell-based; settings: agar culture medium, 20° C., read-out: IC50 (50% inhibition of the growth of the fungus)
Experimental: as §2, §3, §4, §5, §6

[16] = tested on: Serpula lacrymans; assay: as above; assay type: cell-based; settings: agar culture medium, 20° C., read-out: IC50 (50% inhibition of the growth of the fungus)
Experimental: as §2, §3, §4, §5, §6

[17] = Ex. 1: 40 g/100 kg rice seed, 150 kg/ha
[18] = Ex. 2: 40 g/100 kg rice seed, 200 kg/ha
[19] = Ex. 3: 40 g/100 kg rice seed, 150 kg/ha, pregerminated
[20] = Ex. 4: 40 g/100 kg rice seed, 200 kg/ha, pregerminated

## N#Cc1nn(-c2c(Cl)cc(C(F)(F)F)cc2Cl)c(N)c1[S+]([O-])C(F)(F)F (stereo not shown) [Compound A, 5-amino-3-cyano-1-(2,6-dichloro-4-trifluoromethyl)phenyl-4-trifluoromethylsulfinylpyrazole]
[1]; [17]
  number of sheaths attacked; result observed, expressed as percentage: 55 percentage
[1]; [18]
  number of sheaths attacked; result observed, expressed as percentage: 60 percentage
[1]; [19]
  number of sheaths attacked; result observed, expressed as percentage: 55 percentage
[1]; [20]
  number of sheaths attacked; result observed, expressed as percentage: 60 percentage
[2]; [17]
  area of leaves attacked; result observed, expressed as percentage: 79 percentage
[2]; [18]
  area of leaves attacked; result observed, expressed as percentage: 87 percentage
[2]; [19]
  area of leaves attacked; result observed, expressed as percentage: 79 percentage
[2]; [20]
  area of leaves attacked; result observed, expressed as percentage: 87 percentage
[3]; [17]
  number of sheaths attacked; result observed, expressed as percentage: 82 percentage
[3]; [18]
  number of sheaths attacked; result observed, expressed as percentage: 90 percentage
[3]; [19]
  number of sheaths attacked; result observed, expressed as percentage: 82 percentage
[3]; [20]
  number of sheaths attacked; result observed, expressed as percentage: 90 percentage
[4]; [17]
  number of plants attacked just below the ear; result observed, expressed as percentage: 35 percentage
[4]; [18]
  number of plants attacked just below the ear; result observed, expressed as percentage: 39 percentage
[4]; [19]
  number of plants attacked just below the ear; result observed, expressed as percentage: 35 percentage
[4]; [20]
  number of plants attacked just below the ear; result observed, expressed as percentage: 39 percentage
[5]; [17]
  number of leaves having a withered part; result observed, expressed as percentage: 57 percentage
[5]; [18]
  number of leaves having a withered part; result observed, expressed as percentage: 63 percentage
[5]; [19]
  number of leaves having a withered part; result observed, expressed as percentage: 57 percentage
[5]; [20]
  number of leaves having a withered part; result observed, expressed as percentage: 63 percentage
[6]; [17]
  number of sheaths attacked; result observed, expressed as percentage: 80 percentage
[6]; [18]
  number of sheaths attacked; result observed, expressed as percentage: 88 percentage
[6]; [19]
  number of sheaths attacked; result observed, expressed as percentage: 80 percentage
[6]; [20]
  number of sheaths attacked; result observed, expressed as percentage: 88 percentage
[7]; [17]
  number of grains in which the normal yellow color is replaced by brown blemishes; result observed, expressed as percentage: 63 percentage
[7]; [18]
  number of grains in which the normal yellow color is replaced by brown blemishes; result observed, expressed as percentage: 70 percentage
[7]; [19]
  number of grains in which the normal yellow color is replaced by brown blemishes; result observed, expressed as percentage: 63 percentage
[7]; [20]
  number of grains in which the normal yellow color is replaced by brown blemishes; result observed, expressed as percentage: 70 percentage
[8]; infectious dose 0.125 g/kg, control 67
  Number of diseased seedlings (in %): 46%
[8]; infectious dose 0.25 g/kg, control 71
  Number of diseased seedlings (in %): 40%
[9]; 125 g/100 kg seeds
  Number of diseased seedlings (in %): 72%
[9]; 250 g/100 kg seeds
  Number of diseased seedlings (in %): 76%
[10]; 5 g/100 kg seeds
  Number of diseased seedlings (in %): 89%
[10]; 10 g/100 kg seeds
  Number of diseased seedlings (in %): 82%
[10]; 25 g/100 kg seeds
  Number of diseased seedlings (in %): 89%
[10]; 50 g/100 kg seeds
  Number of diseased seedlings (in %): 85%
[10]; 100 g/100 kg seeds
  Number of diseased seedlings (in %): 80%
[11]; 10 g/100 kg seeds
  Infection of the 1st leaf (in %): 47%
[11]; 25 g/100 kg seeds
  Infection of the 1st leaf (in %): 37%
[11]; 50 g/100 kg seeds
  Infection of the 1st leaf (in %): 17%
[11]; 100 g/100 kg seeds
  Infection of the 1st leaf (in %): 2%
[12]; Test No. 1, control 50
  Number of diseased seedlings (in %): 34%
[12]; Test No. 2, control 44
  Number of diseased seedlings (in %): 29%
[13]; 125 g/100 kg seeds
  Total damping off (in %): 50%
  Pre-emergence damping off (in %): 45%
[13]; 250 g/100 kg seeds
  Total damping off (in %): 60%
  Pre-emergence damping off (in %): 45%
[13]; 500 g/100 kg seeds
  Total damping off (in %): 50%
  Pre-emergence damping off (in %): 10%
[14]
  IC50: 16.3 µg/mL (≈ 37.3 µM)
[15]
  IC50: 0.3 µg/mL (≈ 0.686 µM)
[16]
  IC50: 14.5 µg/mL (≈ 33.2 µM)
